Results: ChEMBL document CHEMBL4396974, “Synthesis and evaluation of a novel quinoline-triazole analogs for antitubercular properties via molecular hybridization approach” (Bioorg Med Chem Lett, 2019)

Experiments:
Conditions in all cases: read-out: INH
[1] = Cytotoxicity against human HEK293 cells at 10 uM measured after 48 hrs by sulforhodamine B assay relative to control; type: cell-based
[2] = Cytotoxicity against human PC3 cells at 10 uM measured after 48 hrs by sulforhodamine B assay relative to control; type: cell-based, PC-3
[3] = Cytotoxicity against human PANC1 cells at 10 uM measured after 48 hrs by sulforhodamine B assay relative to control; type: cell-based, PANC-1
[4] = Cytotoxicity against human SKOV3 cells at 10 uM measured after 48 hrs by sulforhodamine B assay relative to control; type: cell-based, SK-OV-3
[5] = Cytotoxicity against human HeLa cells at 10 uM measured after 48 hrs by sulforhodamine B assay relative to control; type: cell-based
[6] = Cytotoxicity against human HeLa cells at 2 uM measured after 48 hrs by sulforhodamine B assay relative to control; type: cell-based
[7] = Cytotoxicity against human HEK293 cells at 2 uM measured after 48 hrs by sulforhodamine B assay relative to control; type: cell-based
[8] = Cytotoxicity against human PANC1 cells at 2 uM measured after 48 hrs by sulforhodamine B assay relative to control; type: cell-based, PANC-1
[9] = Cytotoxicity against human SKOV3 cells at 2 uM measured after 48 hrs by sulforhodamine B assay relative to control; type: cell-based, SK-OV-3
[10] = Cytotoxicity against human PC3 cells at 2 uM measured after 48 hrs by sulforhodamine B assay relative to control; type: cell-based, PC-3

SMILES | cytotoxicity at 48 h, 10 µM [1] [%] | cytotoxicity at 48 h, 10 µM [2] [%] | cytotoxicity at 48 h, 10 µM [3] [%] | cytotoxicity at 48 h, 10 µM [4] [%] | cytotoxicity at 48 h, 10 µM [5] [%] | cytotoxicity at 48 h, 2 µM [6] [%] | cytotoxicity at 48 h, 2 µM [7] [%] | cytotoxicity at 48 h, 2 µM [8] [%] | cytotoxicity at 48 h, 2 µM [9] [%] | cytotoxicity at 48 h, 2 µM [10] [%]
CCCCCc1cn(C(c2ccccc2)c2cc3cc(Br)ccc3nc2OC)nn1 (stereo not given) | -2 | 11.4 | 5.07 | 10.5 | -9.81 | – | – | – | – | –
COc1nc2ccc(Br)cc2cc1C(c1ccccc1)n1cc(-c2ccc(Br)cc2)nn1 (stereo not given) | 6.28 | 7.43 | 10.4 | 13.4 | 6.92 | – | – | – | – | –
COc1nc2ccc(Br)cc2cc1C(c1ccccc1)n1cc(-c2ccc(OC(F)(F)F)cc2)nn1 (stereo not given) | 5.8 | 21.6 | 11.7 | 14.8 | -2.24 | – | – | – | – | –
COc1nc2ccc(Br)cc2cc1C(c1ccccc1)n1cc(C2CC2)nn1 (stereo not given) | 8.22 | 22.6 | 21.8 | 3.52 | -5.84 | – | – | – | – | –
COc1nc2ccc(Br)cc2cc1C(c1ccccc1)n1cc(-c2ccc(F)cc2)nn1 (stereo not given) | 4.04 | 16.4 | 14.9 | 14.3 | 4.27 | – | – | – | – | –
COc1nc2ccc(Br)cc2cc1C(c1ccccc1)n1cc(CCCO)nn1 (stereo not given) | 27.4 | 14.7 | 25.5 | 13.8 | 11.3 | – | – | – | – | –
CCCCCCc1cn(C(c2ccccc2)c2cc3cc(Br)ccc3nc2OC)nn1 (stereo not given) | -3.17 | 2.32 | 6.08 | 7.17 | -0.97 | – | – | – | – | –
COc1nc2ccc(Br)cc2cc1C(c1ccccc1)n1cc(CCCCCO)nn1 (stereo not given) | 7.96 | 12.9 | 19.6 | 8.69 | 1.08 | – | – | – | – | –
COc1nc2ccc(Br)cc2cc1C(c1ccccc1)n1cc(-c2ccccc2C(F)(F)F)nn1 (stereo not given) | 14.3 | 17.4 | 11.4 | 9.55 | -1.3 | – | – | – | – | –
CCCCc1cn(C(c2ccccc2)c2cc3cc(Br)ccc3nc2OC)nn1 (stereo not given) | -3.47 | 5.54 | 5.46 | 11.1 | -2.87 | – | – | – | – | –
CCOC(=O)c1cn(C(c2ccccc2)c2cc3cc(Br)ccc3nc2OC)nn1 (stereo not given) | 2 | 16.1 | 15.4 | 2.01 | -3.67 | – | – | – | – | –
COc1nc2ccc(Br)cc2cc1C(c1ccccc1)n1cc(CCO)nn1 (stereo not given) | 4.54 | 15.5 | 19.8 | 8.46 | 0.85 | – | – | – | – | –
COc1nc2ccc(Br)cc2cc1C(c1ccccc1)n1cc(-c2ccccc2F)nn1 (stereo not given) | 3.97 | 13.4 | 14.7 | 7.33 | 14.1 | – | – | – | – | –
COc1nc2ccc(Br)cc2cc1C(c1ccccc1)n1cc(CO)nn1 (stereo not given) | 11.5 | 4.65 | 15 | 3.23 | 0.25 | – | – | – | – | –
CCCc1cn(C(c2ccccc2)c2cc3cc(Br)ccc3nc2OC)nn1 (stereo not given) | 0.85 | 8.3 | 11.3 | 11.2 | -2.25 | – | – | – | – | –
COc1nc2ccc(Br)cc2cc1C(c1ccccc1)n1cc(-c2ccccc2)nn1 (stereo not given) | 8.25 | 5.97 | 30.1 | 13.7 | 13.9 | – | – | – | – | –
COc1nc2ccc(Br)cc2cc1C(c1ccccc1)n1cc(-c2cccc(F)c2)nn1 (stereo not given) | 6.84 | 14.6 | 15.5 | 12.7 | 9.04 | – | – | – | – | –
CCCCCCCc1cn(C(c2ccccc2)c2cc3cc(Br)ccc3nc2OC)nn1 (stereo not given) | 0.17 | 4.42 | 16.6 | 10.5 | 9.7 | – | – | – | – | –
CCCCCCCCc1cn(C(c2ccccc2)c2cc3cc(Br)ccc3nc2OC)nn1 (stereo not given) | 14.6 | 2.27 | 12.1 | 2.06 | 0.1 | – | – | – | – | –
COc1cccc2c1C(=O)c1c(O)c3c(c(O)c1C2=O)C[C@@](O)(C(=O)CO)C[C@@H]3O[C@H]1C[C@H](N)[C@H](O)[C@H](C)O1 [DOXORUBICIN] | – | – | – | – | – | 74.1 | 75.6 | 96.1 | 83.3 | 86.7
